Data from patent US5352804A, “Isolation and structure of Halistatin 2” (Arizona Board of Regents, a body corporate, acting on …, priority 1993, dated 1994).
Like-named read-outs stand apart in the source and are kept apart here.

Experiments:
Assay in all cases: NCI human tumor in vitro primary screen
Format in all cases: cell-based
SNB-19 = conditions: CNS cancer
Text: (§1) Only two hundred years ago, many diseases ravaged humankind. Many of these diseases now have been controlled or eradicated. In the development of the means to treat or control these diseases, work with the appropriate common experimental animals was of critical importance. With the various types of cancers, and with the HIV virus, such work is presently ongoing. The research for the treatment of various types of cancer is coordinated in the United States by the National Cancer Institute (NCI). NCI, as a government entity, has been charged with assisting anti-cancer research. To establish whether a substance has anti cancer activity, NCI has established a variety of protocols, one of which involves testing the candidate substance against a cell line panel containing 60 human tumor cell lines. This protocol has been verified and is generally accepted throughout the scientific community. This protocol and the established statistical means of evaluating the results obtained therefrom have been fully described in the literature. See Principles & Practice of Oncology PPO Updates, Volume 3, Number 10, Oct. 1989, by Michael R. Boyd, M.D., Ph.D., for an indepth description of the test protocol. The statistical analysis is explained in "Display and Analysis of Patterns of Differential Activity of Drugs Against Human Tumor Cell Lines: Development of Means Graph and COMPARE Algorithm" Journal of the National Cancer Institute Reports Vol. 81, No. 14, Pg. 1088, Jul. 14, 1989, by K. D. Paull et al. Both of these references are incorporated herein by this reference thereto.
(§2) Biological Testing; Data Display and Analysis; Screening Data Summary. Freshly isolated halistatin 2 was tested in the NCI's human tumor, disease-oriented in vitro primary screen, and data calculations performed. Table 3 is a composite prepared from mean graphs constructed from the averaged GI50 values from quadruplicate screenings of Halistatin 2.

HCC-2998 = conditions: colon cancer
Text: as §1, §2

CCRF-CEM = conditions: leukemia
Text: as §1, §2

HCT-15 = conditions: colon cancer
Text: as §1, §2

RPMI-8226 = conditions: leukemia
Text: as §1, §2

EKVX = conditions: non-small cell lung cancer
Text: as §1, §2

HOP-92 = conditions: non-small cell lung cancer
Text: as §1, §2

UACC-257 = conditions: melanoma
Text: as §1, §2

OVCAR-4 = conditions: ovarian cancer
Text: as §1, §2

OVCAR-3 = conditions: ovarian cancer
Text: as §1, §2

NCI-H23 = test system: NCI-H23
Text: as §1, §2

KM 20L2 = test system: KM 20L2
Text: as §1, §2

XF 498 = test system: XF 498
Text: as §1, §2

LOX IMVI = conditions: melanoma
Text: as §1, §2

OVCAR-8 = conditions: ovarian cancer
Text: as §1, §2

UO-31 = conditions: renal cancer
Text: as §1, §2

RXF-393 = test system: RXF-393
Text: as §1, §2

NCI-H460 = test system: NCI-H460
Text: as §1, §2

OVCAR-5 = conditions: ovarian cancer
Text: as §1, §2

HT29 = conditions: HT-29, colon cancer
Text: as §1, §2

K-562 = conditions: K562, leukemia
Text: as §1, §2

HL-60TB = conditions: leukemia
Text: as §1, §2

SF-295 = conditions: CNS cancer
Text: as §1, §2

[1] = read-out: Log10 GI50 (converted)
[2] = read-out: Log10 TGI (converted)
[3] = read-out: averaged negative log10 GI50 (converted)
[4] = non-small cell lung cancer, read-out: averaged negative log10 GI50 (converted)

## C=C1CC2CCC34CC5OC6C(O3)C3OC(CCC3OC6(O)C5O4)CC(=O)OC3C(CC4OC(CCC1O2)CC(C)C4=C)OC1CC2OC4(CC2OC1C3C)CC1OC2(CC(C)C3OC5CC(C(O)CO)OC5CC3O2)CC(C)C1O4 (stereo not drawn) [halistatin 2]
SNB-19; [1]
  GI50: 2.09 nM
SNB-19; [2]
  IC (TGI): 10 nM
SNB-19; [3]
  GI50: 2.09 nM
HCC-2998; [1]
  GI50: 1.29 nM
HCC-2998; [2]
  IC (TGI): 5.25 nM
HCC-2998; [3]
  GI50: 1.29 nM
CCRF-CEM; [1]
  GI50: 0.2 nM
CCRF-CEM; [2]
  IC (TGI): 4.27 nM
CCRF-CEM; [3]
  GI50: 0.2 nM
HCT-15; [1]
  GI50: 5.5 nM
HCT-15; [2]
  IC (TGI): 10 nM
HCT-15; [3]
  GI50: 5.5 nM
RPMI-8226; [1]
  GI50: 0.407 nM
RPMI-8226; [2]
  IC (TGI): 10 nM
RPMI-8226; [3]
  GI50: 0.407 nM
EKVX; [1]
  GI50: 4.07 nM
EKVX; [2]
  IC (TGI): 10 nM
EKVX; [3]
  GI50: 4.07 nM
HOP-92; [1]
  GI50: 1.2 nM
HOP-92; [2]
  IC (TGI): 10 nM
HOP-92; [3]
  GI50: 1.2 nM
UACC-257; [1]
  GI50: 2.29 nM
UACC-257; [2]
  IC (TGI): 10 nM
UACC-257; [3]
  GI50: 2.29 nM
OVCAR-4; [1]
  GI50: 7.76 nM
OVCAR-4; [2]
  IC (TGI): 10 nM
OVCAR-4; [3]
  GI50: 7.76 nM
OVCAR-3; [1]
  GI50: 0.282 nM
OVCAR-3; [2]
  IC (TGI): 1.58 nM
OVCAR-3; [3]
  GI50: 0.282 nM
NCI-H23; NCl-H23, non-small cell lung cancer, read-out: Log10 GI50 (converted)
  GI50: 0.661 nM
NCI-H23; NCl-H23, non-small cell lung cancer, read-out: Log10 TGI (converted)
  IC (TGI): 6.76 nM
NCI-H23; [4]
  GI50: 0.661 nM
KM 20L2; KM 20L2, colon cancer, read-out: averaged negative log10 GI50 (converted)
  GI50: 0.427 nM
KM 20L2; KM-20L2, printed KM2012, colon cancer, read-out: Log10 GI50 (converted)
  GI50: 0.427 nM
KM 20L2; KM-20L2, printed KM2012, colon cancer, read-out: Log10 TGI (converted)
  IC (TGI): 1.91 nM
XF 498; XF498, CNS cancer, read-out: Log10 GI50 (converted)
  GI50: 0.427 nM
XF 498; XF498, CNS cancer, read-out: Log10 TGI (converted)
  IC (TGI): 4.47 nM
XF 498; XF498, XF 498, CNS cancer, read-out: averaged negative log10 GI50 (converted)
  GI50: 0.427 nM
LOX IMVI; [1]
  GI50: 0.501 nM
LOX IMVI; [2]
  IC (TGI): 4.57 nM
LOX IMVI; [3]
  GI50: 0.501 nM
OVCAR-8; [1]
  GI50: 1.29 nM
OVCAR-8; [2]
  IC (TGI): 7.08 nM
OVCAR-8; [3]
  GI50: 1.29 nM
UO-31; [1]
  GI50: 6.03 nM
UO-31; [2]
  IC (TGI): 10 nM
UO-31; [3]
  GI50: 6.03 nM
RXF-393; RXF 393, printed RXP-393, renal cancer, read-out: Log10 GI50 (converted)
  GI50: 0.479 nM
RXF-393; RXF 393, printed RXP-393, renal cancer, read-out: Log10 TGI (converted)
  IC (TGI): 3.09 nM
RXF-393; RXF-393, renal cancer, read-out: averaged negative log10 GI50 (converted)
  GI50: 0.479 nM
NCI-H460; NCl-H460, non-small cell lung cancer, read-out: Log10 GI50 (converted)
  GI50: 0.38 nM
NCI-H460; NCl-H460, non-small cell lung cancer, read-out: Log10 TGI (converted)
  IC (TGI): 6.76 nM
NCI-H460; [4]
  GI50: 0.38 nM
OVCAR-5; [1]
  GI50: 1.82 nM
OVCAR-5; [2]
  IC (TGI): 10 nM
OVCAR-5; [3]
  GI50: 1.82 nM
HT29; [1]
  GI50: 0.457 nM
HT29; [2]
  IC (TGI): 3.72 nM
HT29; [3]
  GI50: 0.457 nM
K-562; [1]
  GI50: 0.229 nM
K-562; [2]
  IC (TGI): 2.57 nM
K-562; [3]
  GI50: 0.229 nM
HL-60TB; HL-60(TB), read-out: Log10 GI50 (converted)
  GI50: 0.158 nM
HL-60TB; HL-60(TB), read-out: Log10 TGI (converted)
  IC (TGI): 1 nM
HL-60TB; HL-60TB, read-out: averaged negative log10 GI50 (converted)
  GI50: 0.158 nM
SF-295; [1]
  GI50: 0.182 nM
SF-295; [2]
  IC (TGI): 5.25 nM
SF-295; [3]
  GI50: 0.182 nM
